Laboratory results published in patent US11384115B2, “Nuclear sulfated oxysterol, potent regulator of lipid homeostasis, for therapy of hypercholesterolemia, hypertriglycerides, fatty liver diseases, and atherosclerosis” (Virginia Commonwealth University, priority 2004, dated 2022).

Legend:
HepG2 cells = experiment: Cholesterol levels in microsomal fractions by HPLC after cholesterol oxidase; format: cell-based, human; conditions: 0-25 μM
HMG CoA reductase mRNA = HMG CoA reductase mRNA by real-time RT-PCR in primary human hepatocytes; format: cell-based; parameters: effect on levels of HMG CoA reductase mRNA: dose or concentration left out as unconfirmed; conditions: for inhibition of HMG CoA reductase mRNA: PHH cultured in serum-free media
Description: Primary human hepatocytes were purchased from an NIH-approved facility (Liver Tissue Procurement Distribution System, Univ. of Minnesota). Cells were obtained from a random sampling of males and females 18-69 yr of age. Experiments were performed as cells became available to corroborate findings in experiments conducted in HepG2 cells as previous described (13).
Total RNA was isolated from HepG2 cells using SV Total RNA Isolation Kit (Promega). Two μg of total RNA was used for first-strand cDNA synthesis as recommended by manufacture (Invitrogen). Real-time PCR was performed using SYBR Green on ABI 7500 Fast Real-Time PCR System (Applied Biosystems). The final reaction mixture contained 5 ng of cDNA, 100 nM of each primer, 10 μl of 2×SYBR® Green PCR Master Mix (Applied Biosystems), and RNase-free water to complete the reaction mixture volume to 20 μl. All reactions were performed in triplicate. The PCR was carried out for 40 cycles at 95° C. for 15 s and 60° C. for 1 min. The fluorescence was read during the reaction, allowing a continuous monitoring of the amount of PCR product. The data was normalized to internal control-β-actin or GAPDH mRNA. The sequences of primers for HMG CoA reductase used in real-time PCR are […] (SEQ ID NO: 1) (Forward) and […] (SEQ ID NO: 2) (Reverse).

SREBP-2 = experiment: Western blot of SREBP-2 activation in HepG2 cells; format: cell-based, human
Description: Western blot analysis of SREBPs activation following 25HC3S or 25HC treatment in HepG2 cells. Total proteins were extracted from HepG2 cells treated with 25HC in ethanol (0.1%) (FIGS. 18A and 18C) or 25HC3S in DMSO (0.1%) (FIGS. 18B and 18D), cultured in the media in absence (FIGS. 18A and 18B) or presence (FIGS. 18C and 18D) of mevinolin (50 mM) and mevalonate (0.5 mM). SREBP-1 and SREBP-2 protein levels in the cells were determined by Western blot analysis. The extracted protein (100 μg) was loaded onto each lane for each condition as indicated. The data represent a typical result from one of three independent experiments.
Microsomal proteins (80 μg) were separated on a 7.5% SDS-polyacrylamide denaturing gel according to the method of Laemmli (14). Following SDS-PAGE (Hoefer Vertical Slab Gel Unit; Heofer, San Francisco, Calif.), proteins were electrophoretically transferred overnight (4° C.) to Immobilon-P membranes using a Hoefer Trans Blot Electrophoretic Transfer cell. The membranes were then blocked for 90 minutes (25° C.) in blocking buffer (PBS, pH 7.4, 0.1% Tween, 5% non-fat dry milk). Proteins were then incubated for 90 minutes (25° C.) or overnight (4° C.) with a rabbit polyclonal IgG (1:2500-1:20,000) against human SREBP-1, SREBP-2, or HMG CoA reductase. […] Protein bands were detected using the Amersham ECL plus Kit.

TNFα and IL-1β mRNA = experiment: LPS-induced TNFα, IL-1β and NFκB mRNA by real-time RT-PCR in THP-1 macrophages; format: cell-based, human; conditions: for LPS-induced IL-1β mRNA levels / LPS-induced TNFα mRNA levels: 25 hours; for LPS-induced IL-1β mRNA levels: FIG. 28A; for LPS-induced TNFα mRNA levels: FIG. 28B
Description: FIGS. 28A and B. Addition of 25HC3S suppresses LPS-induced IL-1β (A) and TNFα (B) expression in macrophages. To study the effect of 25HC3S on LPS-induced TNFα and IL-1β expression and release, macrophages were treated with 1 μg/ml of LPS and different concentrations of 25HC3S and 25HC as indicated for 25 hours; mRNA levels of TNFα and IL-1β were determined by real time RT-PCR. The results represent mean SD. […] Both 25HC3S and 25HC repressed LPS-induced TNFα mRNA levels as shown in B.
Total RNA was isolated from THP-1 derived macrophages following treatments for 6 hrs otherwise as indicated using SV Total RNA Isolation Kit (Promega, Wisconsin, Wis.), which includes DNase treatment. Two microgram of total RNA was used for first-strand cDNA synthesis as recommended by manufacturer (Invitrogen, Carlsbad, Calif.). Real-time RT-PCR was performed using SYBR Green as indicator on ABI 7500 Fast Real-Time PCR System (Applied Biosystems, Foster City, Calif.). The final reaction mixture contained 10 ng of cDNA, 100 nM of each primer, 10 μl of 2×SYBR® Green PCR Master Mix (Applied Biosystems, Foster City, Calif.), and RNase-free water to complete the reaction mixture volume to 20 μl. All reactions were performed in triplicate. PCR was carried out for 40 cycles of 95° C. for 15 s and 60° C. for 1 min. The fluorescence was read during the reaction, allowing a continuous monitoring of the amount of PCR product. The data was normalized to internal control GAPDH.
pSilencer2.1-U6 neo siRNA expression vector and negative control for RNAi were purchased from Ambion, Inc. (Austin, Tex.). Three human PPARγ oligonucleotide sequences, […] (siRNA1, SEQ ID NO: 13), […] (siRNA2, SEQ ID NO: 14), and […] (siRNA3, SEQ ID NO: 15), were selected as specific siRNAs to target human PPARγ. Synthetic sense and antisense oligonucleotides were annealed by incubated at 90° C. for 3 min and then at 37° C. for 1 hr. The double stranded oligonucleotides were cloned into the BamH I-Hind III sites of the pSilencer2.1-U6 neo vector according manufacturer's protocol. The control RNA interference (RNAi) sequence was a randomly scrambled and was not found in the mouse, human, or rat genome databases. All of the constructs were confirmed by sequencing. THP-1 macrophages were transfected with a PPARγ siRNA or control RNAi using FugeneHD reagent according to the manufacturer's instructions (Roche Applied Science, Indianapolis, Ind.). After incubation for 4 hrs, the medium was changed with normal medium and compounds were added at appropriate concentrations as indicated. Cells were harvested after 48 hrs following the addition, and PPARγ protein levels were determined using western blot and mRNA levels of inflammatory response factors were measured by real time RT-PCR analysis.

IL-1β and TNFα release = experiment: ELISA analysis of LPS-induced cytokine releases from macrophages; format: cell-based, human; conditions: LPS 1 μg/ml, 24 hrs; for LPS-induced IL-1β release: concentration-dependent
Description: A total of 1×10^6 macrophages were treated with LPS (1 μg/ml) and/or different concentrations of 25HC or 25HC3S for 24 hrs. Supernatants were harvested and cytokines IL-1ß and TNF-α concentration were measured by enzyme-linked immunosorbent assay (ELISA) according to manufacturer's instruction (SuperArray Bioscience, Frederick Md.). SiRNA-mediated macrophage RNA interference

IκB = IκB mRNA (RT-PCR) and protein (Western blot) in THP-1 macrophages; format: cell-based, human; conditions: for IκB protein levels: Western blot, 24 hrs; for increase of IκB mRNA levels: macrophages; for IκB mRNA level: real time RT-PCR, 6 hrs
Description: FIG. 25A-C. […] The Western blot data represents one of three experiments.
Fifty μg of total cell lysates or nuclear protein extracts, otherwise as indicated, were separated on 10% SDS-PAGE gels and transferred onto a polyvinylidene difluoride membrane as described previously [31]. Membranes were blocked in TBS containing 5% of nonfat dried milk for 1 hr. The specific proteins were determined by incubation with specific antibodies against human PPAR or IκB overnight at 4° C. with shaking. After washing, the membrane was incubated in a 1:3,000 dilution of a secondary antibody (goat anti-rabbit or anti-mouse IgG-HP conjugate; Bio-Rad, Hercules, Calif.) at room temperature for 1 hr in the washing buffer (Tris buffered solution containing 0.5% Tween 20). The protein bands were visualized using Western Lightening Chemiluminescence Reagent (Perkin-Elmer, Waltham, Mass.). The expression levels were normalized to Lamin.

LXR = conditions: macrophages, cited from earlier work

**Q.** Which results are given for `C[C@H](CCCC(C)(C)O)[C@H]1CC[C@H]2[C@@H]3CC=C4C[C@@H](OS(=O)(=O)O)CC[C@]4(C)[C@H]3CC[C@]12C` [25HC3S, 5-cholesten-3β, 25-diol 3-sulphate]?
**A.** cholesterol levels in the microsomal fraction (HepG2 cells): significantly decreased; cholesterol levels in the microsomal fraction (HepG2 cells; listed as nuclear oxysterol): significant decrease; inhibition of HMG CoA reductase mRNA (HMG CoA reductase mRNA): 75%; mature form of SREBP-2 (SREBP-2): only slightly decreased; LPS-induced IL-1β mRNA levels (TNFα and IL-1β mRNA; 1 μg/ml LPS): significantly suppressed; LPS-induced TNFα mRNA levels (TNFα and IL-1β mRNA; 1 μg/ml LPS): repressed; LPS-induced TNFα, IL-1β and NFκB expression (TNFα and IL-1β mRNA; 12 μM, 48 hrs, control macrophages): significantly suppressed; suppression of IL-1 and TNFα expression in the presence of T0070907 (TNFα and IL-1β mRNA; PPARγ antagonist T0070907): significantly be blunted; LPS-induced TNFα, IL-1β and NFκB expression in siRNA-expressed cells (TNFα and IL-1β mRNA; PPARγ knock down macrophages): failed in suppressing; suppression of LPS-induced IL-1β mRNA levels (TNFα and IL-1β mRNA; macrophages, 1 μg/ml LPS): 2 fold; LPS-induced release of TNFα (IL-1β and TNFα release): represses; LPS-induced IL-1β release (IL-1β and TNFα release): significantly decreased; IκB protein levels (IκB): increased; increase of IκB mRNA levels (IκB; 12 μM): 2.5 folds; increase of IκB mRNA levels (IκB; in the presence of TNFα): 6 folds; IκB mRNA level (IκB): significantly increased; LXR activities and its targeting gene expressions (LXR): decreases

**Q.** Which results are given for `C[C@H](CCCC(C)(C)O)[C@H]1CC[C@H]2[C@@H]3CC=C4C[C@@H](O)CC[C@]4(C)[C@H]3CC[C@]12C` [25HC, 25-hydroxycholesterol, reference compound]?
**A.** cholesterol levels in the microsomal fraction (HepG2 cells): significantly decreased; inhibition of HMG CoA reductase mRNA (HMG CoA reductase mRNA): 15%; effect on levels of HMG CoA reductase mRNA (HMG CoA reductase mRNA; PHH, serum-free media): ~15%; mature form of SREBP-2 (SREBP-2): only slightly decreased; LPS-induced IL-1β mRNA levels (TNFα and IL-1β mRNA; 1 μg/ml LPS): significantly increased; LPS-induced TNFα mRNA levels (TNFα and IL-1β mRNA; 1 μg/ml LPS): repressed; increase of LPS-induced IL-1β mRNA levels (TNFα and IL-1β mRNA; macrophages, 1 μg/ml LPS): 2 fold; LPS-induced IL-1β release (IL-1β and TNFα release): increased; IκB protein levels (IκB): decreased; IκB mRNA level (IκB): no significantly changed; increase of LXR targeting gene expressions, ABCA1/G1 and SREBP-1 mRNAs (LXR; in 6 hrs): 5-50 fold
